Results published in patent US12396458B2, “Fused ring substituted aromatic compound and preparation method therefor, herbicidal composition, and use thereof” (Qingdao Kingagroot Chemical Compound Co., Ltd., priority 2020, dated 2025).

Tests used:
Assay in all cases: Weeding effect in post-emergence stage (greenhouse pot test)
Assay type in all cases: in vivo
[1] = system: Capsella bursa-pastoris; conditions: 3 weeks after application, fresh weight control rate
From the text: (§1) The activity level criteria for plant damage (i.e., growth control rate) are as follows:
(§2) Level 5: growth control rate is above 85%; • Level 4: growth control rate is greater than or equal to 60% and less than 85%; • Level 3: growth control rate is greater than or equal to 40% and less than 60%; • Level 2: growth control rate is greater than or equal to 20% and less than 40%; • Level 1: growth control rate is greater than or equal to 5% and less than 20%; • Level 0: growth control rate is less than 5%.
(§3) The above growth control rates are fresh weight control rates.
(§4) Experiment on weeding effect in post-emergence stage:
(§5) Monocotyledonous and dicotyledonous weed seeds (Descurainia sophia, Capsella bursa-pastoris, Abutilon theophrasti, Galium aparine, Stellaria media, Lithospermum arvense, Rorippa indica, Alopecurus aequalis, Alopecurus japonicus, Eleusine indica, Beckmannia syzigachne, Sclerochloa dura, Phleum paniculatum, Veronica didyma Tenore, Bromus japonicus, Aegilops tauschii, Phalaris arundinacea, Amaranthus retrojlexus, Chenopodiaceae, Commelina communis, Sonchus arvensis, convolvulus arvensis, Cirsium setosum, Solanum nigrum, Acalypha australis, Digitaria sanguinalis, Echinochloa crusgalli, Setaria viridis, Setaria glauca, Leptochloa chinensis, Monochoria vaginalis, Sagittaria trifolia, Scirpus juncoides, Cyperus rotundus, Cyperus iria, Cyperus difformis, Fimbristylis, Portulaca oleracea, Xanthium sibiricum, Pharbitis nil, Conyza japonica, etc.) and major crop seeds (wheat, corn, rice, soybean, cotton, oilseed rape, millet, sorghum, potato, sesame, ricinus, etc.) were placed in plastic pots filled with soil, then covered with 0.5-2 cm of soil, allowed to grow in a good greenhouse environment. After 2 weeks of sowing, the test plants were treated in the 2-3 leaf stage. The tested compounds of the present invention were respectively dissolved in acetone, then added with Tween 80 and 1.5 liter/ha of emulsifiable concentrate of methyl oleate as synergist, diluted with a certain amount of water to obtain a solution with a certain concentration, and sprayed with a spray tower onto the plants. After the application, the plants were cultured for 3 weeks in the greenhouse, and then the experimental results of the weeding were counted. The doses of the used compounds were 500, 250, 125, 60, 15, 7.5 g a.i./ha, and the averages were obtained by repeating for three times.

[2] = system: Conyza japonica; conditions: post-emergence, 3 weeks after application, fresh weight control rate
From the text: as §1, §2, §3, §4, §5

[3] = system: Beckmannia syzigachne; conditions: 3 weeks after application, fresh weight control rate
From the text: as §1, §2, §3, §4, §5

[4] = system: Alopecurus japonicus; conditions: 3 weeks after application, fresh weight control rate
From the text: as §1, §2, §3, §4, §5

| SMILES | Activity level (growth control rate), Capsella bursa-pastoris ([1]; dose 125 g a.i./ha) | Activity level (growth control rate), Conyza japonica ([2]; dose 125 g a.i./ha) | Activity level (growth control rate), Beckmannia syzigachne ([3]; dose 125 g a.i./ha) | Activity level (growth control rate), Alopecurus japonicus ([4]; dose 125 g a.i./ha) | Activity level (growth control rate), Capsella bursa-pastoris ([1]; dose 15 g a.i./ha) | Activity level (growth control rate), Conyza japonica ([2]; dose 15 g a.i./ha) | Activity level (growth control rate), Beckmannia syzigachne ([3]; dose 15 g a.i./ha) | Activity level (growth control rate), Alopecurus japonicus ([4]; dose 15 g a.i./ha) |
| --- | --- | --- | --- | --- | --- | --- | --- | --- |
| CCOC(=O)CCC12CCCC1C(c1cc(-n3c(=O)n(C)c(=S)n(C)c3=O)c(F)cc1Cl)=NO2 (centres unmarked) [Compound 530] | 5 (Level 5: growth control rate is above 85%) | 4 (Level 4: growth control rate is greater than or equal to 60% and less than 85%) | 4 (Level 4: growth control rate is greater than or equal to 60% and less than 85%) | 5 (Level 5: growth control rate is above 85%) | – | – | – | – |
| CCOCOC(=O)C12CCCC1C(c1cc(-n3c(=O)cc(C(F)(F)F)n(C)c3=O)c(F)cc1Cl)=NO2 (centres unmarked) [Compound 425] | – | – | – | – | 5 (Level 5: growth control rate is above 85%) | 4 (Level 4: growth control rate is greater than or equal to 60% and less than 85%) | 5 (Level 5: growth control rate is above 85%) | 5 (Level 5: growth control rate is above 85%) |
| Cn1c(C(F)(F)F)cc(=O)n(-c2cc(C3=NOC4(C(=O)OCCF)CCCC34)c(Cl)cc2F)c1=O (centres unmarked) [Compound 231] | – | – | – | – | 5 (Level 5: growth control rate is above 85%) | 4 (Level 4: growth control rate is greater than or equal to 60% and less than 85%) | 5 (Level 5: growth control rate is above 85%) | 5 (Level 5: growth control rate is above 85%) |
| Cc1cc(C)n(C(=O)C23CCCC2C(c2cc(-n4c(=O)cc(C(F)(F)F)n(C)c4=O)c(F)cc2Cl)=NO3)n1 (centres unmarked) [Compound 333] | – | – | – | – | 4 (Level 4: growth control rate is greater than or equal to 60% and less than 85%) | 4 (Level 4: growth control rate is greater than or equal to 60% and less than 85%) | 4 (Level 4: growth control rate is greater than or equal to 60% and less than 85%) | 4 (Level 4: growth control rate is greater than or equal to 60% and less than 85%) |
| COC(=O)C12CCCC1C(c1cc(-c3ncc(C(F)(F)F)cc3Cl)c(F)cc1Cl)=NO2 (centres unmarked) [Compound 585] | – | – | – | – | 5 (Level 5: growth control rate is above 85%) | 4 (Level 4: growth control rate is greater than or equal to 60% and less than 85%) | 5 (Level 5: growth control rate is above 85%) | 5 (Level 5: growth control rate is above 85%) |
| Cn1c(C(F)(F)F)cc(=O)n(-c2cc(C3=NOC4(C(=O)OCCCl)CCCC34)c(Cl)cc2F)c1=O (centres unmarked) [Compound 424] | – | – | – | – | 5 (Level 5: growth control rate is above 85%) | 5 (Level 5: growth control rate is above 85%) | 5 (Level 5: growth control rate is above 85%) | 5 (Level 5: growth control rate is above 85%) |
| COC(=O)C12CCCC1C(c1nc(-n3c(=O)cc(C(F)(F)F)n(C)c3=O)c(F)cc1Cl)=NO2 (centres unmarked) [Compound 521] | – | – | – | – | 5 (Level 5: growth control rate is above 85%) | 4 (Level 4: growth control rate is greater than or equal to 60% and less than 85%) | 5 (Level 5: growth control rate is above 85%) | 5 (Level 5: growth control rate is above 85%) |
| COC(=O)C12CCCC1C(c1cc(-c3nnc(C(F)(F)F)cc3OC)c(F)cc1Cl)=NO2 (centres unmarked) [Compound 578] | – | – | – | – | 5 (Level 5: growth control rate is above 85%) | 4 (Level 4: growth control rate is greater than or equal to 60% and less than 85%) | – | 5 (Level 5: growth control rate is above 85%) |
| C=CCOC(=O)C12CCCC1C(c1cc(-n3c(=O)n(C)c(=S)n(C)c3=O)c(F)cc1Cl)=NO2 (centres unmarked) [Compound 10] | – | – | – | – | 5 (Level 5: growth control rate is above 85%) | 4 (Level 4: growth control rate is greater than or equal to 60% and less than 85%) | 5 (Level 5: growth control rate is above 85%) | 5 (Level 5: growth control rate is above 85%) |
| CCOC(=O)C12ON=C(c3cc(-n4c(=O)cc(C(F)(F)F)n(C)c4=O)c(F)cc3Cl)C1CCC2C (centres unmarked) [Compound 476] | – | – | – | – | 5 (Level 5: growth control rate is above 85%) | 4 (Level 4: growth control rate is greater than or equal to 60% and less than 85%) | 5 (Level 5: growth control rate is above 85%) | 5 (Level 5: growth control rate is above 85%) |
| CC(C)OC(=O)C12CCCC1C(c1cc(-n3c(=O)cc(C(F)(F)F)n(C)c3=O)c(F)cc1Cl)=NO2 (centres unmarked) [Compound 217] | – | – | – | – | 5 (Level 5: growth control rate is above 85%) | 4 (Level 4: growth control rate is greater than or equal to 60% and less than 85%) | 5 (Level 5: growth control rate is above 85%) | 5 (Level 5: growth control rate is above 85%) |
| COC(=O)C12CCC(O)C1C(c1cc(-n3c(=O)cc(C(F)(F)F)n(C)c3=O)c(F)cc1Cl)=NO2 (centres unmarked) [Compound 444] | – | – | – | – | 5 (Level 5: growth control rate is above 85%) | – | – | 4 (Level 4: growth control rate is greater than or equal to 60% and less than 85%) |
| COC(=O)C1CC2C(c3cc(-n4c(=O)cc(C(F)(F)F)n(C)c4=O)c(F)cc3Cl)=NOC2(C(=O)OC)C1 (centres unmarked) [Compound 464] | – | – | – | – | 5 (Level 5: growth control rate is above 85%) | – | – | 5 (Level 5: growth control rate is above 85%) |
| COC(=O)C12CCCC1C(c1cc(/N=c3\sc(=O)n4n3CCCC4)c(F)cc1Cl)=NO2 (centres unmarked) [Compound 575] | – | – | – | – | 5 (Level 5: growth control rate is above 85%) | 4 (Level 4: growth control rate is greater than or equal to 60% and less than 85%) | – | 4 (Level 4: growth control rate is greater than or equal to 60% and less than 85%) |
